In the assay the target is T1, Zinc finger and BTB domain-containing protein 44 (Homo sapiens) (UniProt Q8NCP5).
T1 sequence (whole entry): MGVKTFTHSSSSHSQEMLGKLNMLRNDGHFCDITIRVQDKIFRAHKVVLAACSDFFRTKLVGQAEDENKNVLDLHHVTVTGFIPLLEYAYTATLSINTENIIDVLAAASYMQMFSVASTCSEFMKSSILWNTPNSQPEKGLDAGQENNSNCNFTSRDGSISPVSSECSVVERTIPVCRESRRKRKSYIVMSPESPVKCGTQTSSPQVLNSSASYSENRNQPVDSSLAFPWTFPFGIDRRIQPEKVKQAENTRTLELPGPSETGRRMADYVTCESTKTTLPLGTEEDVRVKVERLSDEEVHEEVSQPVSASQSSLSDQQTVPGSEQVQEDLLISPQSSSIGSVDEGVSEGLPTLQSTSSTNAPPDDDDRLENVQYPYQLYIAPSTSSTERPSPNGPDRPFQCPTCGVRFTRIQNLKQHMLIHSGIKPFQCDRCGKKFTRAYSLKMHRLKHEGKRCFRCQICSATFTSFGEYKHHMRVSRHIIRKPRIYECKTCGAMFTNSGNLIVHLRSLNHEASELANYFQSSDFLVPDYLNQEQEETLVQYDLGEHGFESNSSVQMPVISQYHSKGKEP
The conditions noted are these: OCI-Ly1, Compound concentration 1.0 uM.

Molecules are shown by their SMILES.

Turning to `C[C@@H]1CN(c2ncc(Cl)c(Nc3ccc4c(c3)n(CCC(C)(C)O)c(=O)n4C)n2)C[C@H](C)C1(F)F`, the LogFC was 0.423.

Source of the values: ChEMBL document CHEMBL5058646 (2022).
